Measured values: ChEMBL document CHEMBL1135977, “Comparison of 3D structures and AT(1) binding properties of pyrazolidine-3,5-diones and tetrahydropyridazine-3,6-diones with parent antihypertensive drug irbesartan” (J Med Chem, 2002)
pIC50, pKi: −log10 of the molar value.

Legend:
[1] = Inhibition of AII(50 nM) induced intracellular [Ca2+] increase in PLC-PRF cells; assay type: functional, cell-based; conditions: Homo sapiens
[2] = molecular target: T1, Type-1 angiotensin II receptor (Homo sapiens, UniProt P30556); assay: In vitro binding affinity towards Angiotensin II receptor, type 1 of human hepatoma cell line PLC-PRF-5
T1 sequence (P30556 whole entry): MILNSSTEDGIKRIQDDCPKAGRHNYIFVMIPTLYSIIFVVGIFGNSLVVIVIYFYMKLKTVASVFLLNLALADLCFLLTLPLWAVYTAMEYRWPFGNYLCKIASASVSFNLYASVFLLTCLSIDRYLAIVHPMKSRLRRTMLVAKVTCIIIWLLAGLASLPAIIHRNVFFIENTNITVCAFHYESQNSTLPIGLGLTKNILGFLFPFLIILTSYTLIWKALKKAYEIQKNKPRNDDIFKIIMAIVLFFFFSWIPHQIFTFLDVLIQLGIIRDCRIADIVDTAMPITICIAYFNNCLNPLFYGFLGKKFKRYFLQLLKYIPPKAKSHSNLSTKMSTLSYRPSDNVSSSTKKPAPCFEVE

| SMILES | pIC50 [1] | pKi [2] |
| --- | --- | --- |
| CCCCN1C(=O)C2(CCCC2)C(=O)N1Cc1ccc(-c2ccccc2-c2nn[nH]n2)cc1 | 7.55 |  |
| CCCCC1=NC2(CCCC2)C(=O)N1Cc1ccc(-c2ccccc2-c2nnn[nH]2)cc1 [IRBESARTAN] | 8.40 |  |
| CCCCN1C(=O)C2(CCCC2)CC(=O)N1Cc1ccc(-c2ccccc2-c2nnn[nH]2)cc1 | 6.99 | 7.10 |
| CCCCN1C(=O)CC2(CCCC2)C(=O)N1Cc1ccc(-c2ccccc2-c2nn[nH]n2)cc1 | 8.05 | 7.85 |
